Reference: US20260210856A1, “CONJUGATED OLIGOELECTROLYTES WITH BORON-DIPYRROMETHENE CORES AND METHODS THEREOF” (National University of Singapore, priority 2022, published 2026)

What was measured:
[1] = Fluorescence lifetime in water:glycerol mixtures of varying viscosities; type: physicochemical; details: 590 nm, 20° C.
Experimental: The BODIPY unit of COE-BYs are sensitive to the viscosity of its environment. As an example, COE-BYPhMe was added to mixtures of water and glycerol at various ratios. The viscosity of the local environment has the most significant effect on its emission intensity and emission lifetime. The plot of log τ (fluorescence lifetime) versus log η (solvent viscosity) is fitted by a straight line.
We examined the sensitivity of COE-BYs to changes in viscosity in solution by using different glycerol and water mixtures. The viscosities of the solutions were increased through increases of the glycerol fraction. Of interest was the relationship between the viscosity (η) and the amplitude-weighted average emission lifetime (τw), which is defined by
Each individual lifetime component Tr is normalized to the corresponding amplitude (Ai) derived from fitting the emission decay to a multiexponential model, where p is the total number of exponents (1 or 2). […] It is known that increases in environmental viscosity restricts the rotation of the phenyl rings surrounding the BODIPY unit, which diminishes non-radiative decay pathways of the excited state, resulting in longer fluorescence lifetimes. […] Due to the low emission, we could not accurately extract emission lifetimes from the fluorescence decays of COE-BYPhCN and COE-BYPhNO.

[2] = Fluorescence imaging of stained GUVs; type: physicochemical; details: POPC GUV, normal light
Excerpt: Giant unilamellar vesicles (GUVs) composed of 1-palmitoyl-2-oleoyl-glycero-3-phosphocholine (POPC) were chosen as the model membrane system for the initial studies because of their ideal size (diameter>1 μm) for imaging via optical microscopy. […] COE-BY series are thus embedded within the bilayer as membrane-spanning probes, a geometric consideration relevant to measuring membrane tension across the whole lipid bilayer, instead of a single leaflet.

[3] = Analyte viscosity sensing: fluorescence lifetime in the presence of different analytes; type: physicochemical; details: 0.5 μM
Experimental: Solutions of bovine serum albumin (BSA), high density lipoprotein (HDL), Liposomes of POPC:POPG 85:15 (SUVs) and Liposomes of POPC:POPG:Cholesterol 42.5:7.5:50 (SUV CHOL) were prepared at final concentrations of 1 mg/mL in PBS. COE-BYs were prepared at 1 μM in PBS. 150 μL of analyte and 150 μL of COE-BYs were mixed and incubated for 1 hour at 37C. Fluorescent emission profiles were measured with excitation at 545 nm.

[4] = tested on: A549 cells; assay: Confocal microscopy of stained cells; type: cell-based
Experimental: A549 cells were stained for 5 minutes with 0.75 μM COE-BYPhMe (red channel) before imaging and Hoechst 33342 (blue channel).
(§1) Our next objective was to study the cellular distribution of COE-BYPhOC4 series at different time points by conventional confocal microscopy.

[5] = tested on: HeLa cells; assay: Time-dependent colocalization with organelle probes, confocal microscopy; type: cell-based
Experimental: (b) Confocal image of A549 cells stained with 1 μM COE-BYPhOC4. Confocal images of (c) A549 and (d) HeLa cells. Cells were prestained with COE-BYPhOC4 (red) for 4 hours and then stained with commercial plasma membrane dye CellMask Deep Red (blue and green, respectively) for 5 min. (e) Confocal images for time-dependent colocalization experiments. HeLa cells were stained with 1 μM COE-BYPhOC4 with different incubation times (2 h, 8 h, 24 h and 48 h). Cells were imaged in multiple channels to collect fluorescence signals from COE-BYPhOC4 and other commercial organelle dyes. Red: COE-BYPhOC4; the first column green: CellLight Early Endosome-GFP; the second column green: CellLight Late Endosome-GFP; the third column deep blue: CellLight Lysosomes-GFP; the fourth column sky blue: HCS LipidTOX™ Deep Red; the fifth column yellow: MitoTracker Deep Red. Scale bar: 5 μm.
Insights into the intracellular location of COE-BYPhOC4 at different time points were sought through colocalization experiments with a panel of common commercial organelle probes (CellLight Early Endosome-GFP, CellLight Late Endosome-GFP, CellLight Lysosomes-GFP, LipidTOX™ Deep Red, and MitoTracker Deep Red). To label the vesicles in the endocytic pathway with high specificity and avoid dye translocation associated with alkalinizing effects and equilibrium shifts after extended durations, we elected to use GFP-tagged markers that are definitive for each vesicle subtype, namely Rab5a, Rab7a, and Lamp-1 for early endosomes, late endosomes, and lysosomes respectively. […] Subsequently at 8 hours, the highest overlay can be observed from COEs and the late endosome marker. Prolonged incubation beyond this point further increased the degree of colocalization, from 0.73 at 8 hours to 0.95 at 48 h.

[6] = tested on: A549 cells; assay: Uptake after pretreatment with endocytic inhibitors, flow cytometry; type: cell-based; details: 1 μM dye, 3 h
Experimental: (§2) To further understand the internalization of COE-BYPhOC4, A549 and HeLa cells were pretreated with endocytic inhibitors including pharmacological treatments genistein (caveolae-dependent), chlorpromazine (clathrin-dependent) and low temperature (energy-dependent). Cells were then stained by treatment with 1 μM COE-BYPhOC4 and the endocytosis inhibition efficiency was characterized by flow cytometry and fluorescence confocal imaging. […] The confocal images in FIG. 13C provide additional confirmation of this endocytosis pathway. Fluorescence signals are only observed on the plasma membranes in the chlorpromazine pretreated group, while COE-BYPhOC4 readily underwent endocytosis and appeared as red vesicular puncta in the other three groups. Successful plasma membrane staining similar to FIG. 12A also provides evidence of insertion into the membrane prior to endocytosis and subsequent trafficking together with other lipid molecules, as opposed to being directly engulfed within intracellular vesicles. This feature enables the dye to follow the endosomal pathway throughout the maturation process beginning from the plasma membrane, as opposed to commonly employed pH-dependent methods to control accumulation within vesicle subtypes.

[7] = tested on: HeLa cells; assay: as above; type: cell-based; details: 1 μM dye, 3 h
Experimental: as §2

[8] = tested on: MDCK cells; assay: Confocal microscopy of stained cells; type: cell-based; details: 1 μM, 10 minutes
Excerpt: as §1

Question: With CCCCOc1ccc(C2=C3C(C)=C(c4ccc(/C=C/c5cc(OCCCCCC[N+](C)(C)C)c(OCCCCCC[N+](C)(C)C)c(OCCCCCC[N+](C)(C)C)c5)cc4)C(C)=[N+]3[B-](F)(F)n3c(C)c(-c4ccc(/C=C/c5cc(OCCCCCC[N+](C)(C)C)c(OCCCCCC[N+](C)(C)C)c(OCCCCCC[N+](C)(C)C)c5)cc4)c(C)c32)cc1.[I-].[I-].[I-].[I-].[I-].[I-] [COE-BYPhOC4] as the molecule, how does the “amplitude-weighted average emission lifetime τw” value ([1]; solution viscosity 22.5 cP) read?
Answer: 0.5 ns

Question: And the “amplitude-weighted average emission lifetime τw” value ([1]; solution viscosity 939 cP)?
Answer: 1.2 ns

Question: And the “fluorescence of stained GUV” value [2]?
Answer: strong uniform fluorescence

Question: What about the Lifetime ([3]; analyte HDL 0.5 mg/mL) of the same molecule?
Answer: 4.02 ± 0.01 ns

Question: What about the Lifetime ([3]; analyte PBS) of the same molecule?
Answer: 0.56 ± 0.01 ns

Question: And the Lifetime ([3]; analyte SUV (POPC:POPG 85:15) 0.5 mg/mL)?
Answer: 1.99 ± 0.01 ns

Question: And the Lifetime ([3]; analyte SUV CHOL (POPC:POPG:Cholesterol 42.5:7.5:50) 0.5 mg/mL)?
Answer: 2.18 ± 0.01 ns

Question: And the staining pattern ([4]; A549, 1 μM, 10 minutes)?
Answer: strong fluorescence signals were observed on the plasma membranes

Question: And the location of emission ([4]; incubation for 4 hours)?
Answer: predominantly intracellular emission

Question: What about the “degree of colocalization with late endosome marker” value ([5]; 1 μM, 8 hours) of the same molecule?
Answer: 0.73

Question: What about the “degree of colocalization with late endosome marker” value ([5]; 1 μM, 48 h) of the same molecule?
Answer: 0.95

Question: What about the “Pearson's correlation coefficient value (R) relative to GFP-tagged Rab5a (early endosome)” value ([5]; 1 μM, incubation 2 h) of the same molecule?
Answer: 0.71

Question: And the “colocalization with lipid droplets and mitochondria markers” value ([5]; all timepoints)?
Answer: poor colocalization with lipid droplets and mitochondria markers at all timepoints

Question: And the “dye fluorescence intensity relative to the untreated group” value ([6]; A549, chlorpromazine pretreatment)?
Answer: 14%

Question: And the “dye fluorescence intensity relative to the untreated group” value ([6]; A549, genistein pretreatment)?
Answer: 95%

Question: What about the “dye fluorescence intensity relative to the untreated group” value ([7]; chlorpromazine pretreatment) of the same molecule?
Answer: 21%

Question: And the “dye fluorescence intensity relative to the untreated group” value ([7]; genistein pretreatment)?
Answer: 92%

Question: What about the staining pattern [8] of the same molecule?
Answer: strong fluorescence signals were observed on the plasma membranes
